Experimental data as given in US11613515B2, “Neuro-attenuating ketamine and norketamine compounds, derivatives thereof, and methods” (Amorsa Therapeutics, Inc., priority 2014, dated 2023).
Structures can show the parent of a compound that is named as a salt.

Tests used:
[1] = estimated, background; cited from earlier work
NMDA receptor = assay: Patch clamp electrophysiological functional response, NMDA receptor inhibition; format: cell-based; conditions: cultural hippocampal rat neurons
[2] = fraction of ketamine activity; cited from earlier work
[3] = Metabolic stability in rat liver microsomes; conditions: NADPH regenerating system, 0 to 60 min
[4] = Pharmacokinetics of deuterated norketamines in rats (tail vein injection); conditions: 0.8 mg/kg, injection into the tail vein
Procedure: Pharmacokinetics of the deuterated norketamines is studied in rats. […] The terminal half-lives are calculated by fitting the data points using a WinNonLin software package.

[5] = cited from earlier work

CNC1(c2ccccc2Cl)CCCCC1=O (racemic) [ketamine, (R,S)-2-(2-chlorophenyl)-2-(methylamino) cyclohexanone]
elimination half-life [1]: 2 to 3 h | IC50 (NMDA receptor): 2.2 µM

NC1(c2ccccc2Cl)CCCCC1=O (racemic) [norketamine, (R,S)-2-(2-chlorophenyl)-2-(amino) cyclohexanone]
activity as compared with ketamine [2]: roughly one third | IC50 (NMDA receptor): 14.7 µM

[2H]C1([2H])CCCC(N)(c2ccccc2Cl)C1=O (centres unmarked) [compound 11]
increase in half-life compared to non-deuterated norketamine [3]: about 80% | IC50 (NMDA receptor): 25.9 µM | increase of terminal half-life vs norketamine [4]: ~40%

CNC1(c2ccccc2Cl)CCCCC1=O (centres unmarked) [ketamine hydrochloride]
solubility in water [5]: about 200 mg/ml
